Values quoted from earlier work in US20230310417A1, “INJECTABLE ARIPIPRAZOLE FORMULATION” (CIPLA LIMITED, priority 2020, published 2023).

Details: room temperature

aqueous solubility: < 1 µg/mL
Structure (SMILES): O=C1CCc2ccc(OCCCCN3CCN(c4cccc(Cl)c4Cl)CC3)cc2N1 [Aripiprazole]
